The record followed here is patent US20250121078A1, “PEPTIDE DRUG CONJUGATES AND THEIR USES” (priority 2023, published 2025).

Where a SMILES comes first, the peptide text is derived from it. [ ]: non-standard residue; d: D form. The star is where a group is joined. Paclitaxel(2'-O-succinyl) = CC(=O)O[C@H]1C(=O)[C@@]2(C)[C@H]([C@H](OC(=O)c3ccccc3)[C@]3(O)C[C@H](OC(=O)[C@H](OC(=O)CCC(=O)*)[C@@H](NC(=O)c4ccccc4)c4ccccc4)C(C)=C1C3(C)C)[C@]1(OC(C)=O)CO[C@@H]1C[C@@H]2O; Propanoyl(3-SS-DM1) = COc1cc2cc(c1Cl)N(C)C(=O)C[C@H](OC(=O)[C@H](C)N(C)C(=O)CCSSCCC(=O)*)[C@]1(C)O[C@H]1[C@H](C)[C@@H]1C[C@@](O)(NC(=O)O1)[C@H](OC)/C=C/C=C(\C)C2; d(hArg(Et2)) = CCN=C(NCC)NCCCC[C@@H](N)C(=O)O; hArg(Et2) = CCN=C(NCC)NCCCC[C@H](N)C(=O)O; dPhe(4-Cl) = N[C@H](Cc1ccc(Cl)cc1)C(=O)O; d2Nal = N[C@H](Cc1ccc2ccccc2c1)C(=O)O; dCit = NC(=O)NCCC[C@@H](N)C(=O)O; d3Pal = N[C@H](Cc1cccnc1)C(=O)O

In the first assay the target is T1, LHRHR, also known as GnRHR (Homo sapiens, UniProt P30968).
T1 sequence (P30968 1-328): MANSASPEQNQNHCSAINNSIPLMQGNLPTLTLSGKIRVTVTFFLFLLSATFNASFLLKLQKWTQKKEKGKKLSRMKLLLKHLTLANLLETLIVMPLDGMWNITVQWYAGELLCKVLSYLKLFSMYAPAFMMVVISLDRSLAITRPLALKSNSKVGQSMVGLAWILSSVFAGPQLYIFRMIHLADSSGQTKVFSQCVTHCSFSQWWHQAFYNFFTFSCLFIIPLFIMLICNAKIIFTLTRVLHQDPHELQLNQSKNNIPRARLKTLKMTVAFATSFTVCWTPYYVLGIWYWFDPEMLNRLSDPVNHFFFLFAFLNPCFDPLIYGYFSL
Briefly: Radioligand binding assay ([125I]-[D-Trp6]-LHRH displacement).
Settings: not given
On the procedure:
An amount of 2 μg of a purified membrane with LHRHR, also known as GnRHR, was incubated with 0.18 nM [125I]-[D-Trp6]-LHRH and compounds of interest in the incubation buffer (50 mM HEPES, pH 7.4, 5 mM MgCl2, 1 mM CaCl2, and 0.2% BSA). The reaction mixtures were incubated for 1 h at 25° C. and then were transferred to a 96-well GF/B filter plate (Millipore Corp., Billerica, MA, USA), which were terminated by manifold filtration and washed with a wash buffer (50 mM HEPES, pH 7.4, and 100 mM NaCl) for six times. The radioactivity bound to the filter was measured by a Topcount® system (PerkinElmer Inc., Waltham, MA, USA). IC50 values were determined by the concentration of a compound required to inhibit 50% of the specific binding of [125I]-[D-Trp6]-LHRH and calculated by nonlinear regression (GraphPad Software, San Diego, CA, USA). The design of these drug conjugates is to actively targeting LHRH-receptor at tumor site and facilitate drug conjugate accumulation in situ. Therefore, selective and strong binding of the synthetic peptide ligand with the receptor is important to allow enrichment of these conjugates, followed by release of the drug payload in the tumor microenvironment.
Compounds of the invention have a binding as low as 0.17 nM.
Compound `COc1cc2cc(c1Cl)N(C)C(=O)C[C@H](OC(=O)[C@H](C)N(C)C(=O)CCSC(=O)OCc1ccc(O[Si](OCCCn3nnc4c3CC[C@@H]3[C@H](CC4)[C@H]3COC(=O)N(CCCC[C@H](NC(=O)[C@H](CC(C)C)NC(=O)[C@@H](Cc3ccc(NC(N)=O)cc3)NC(=O)[C@H](Cc3ccc(NC(=O)[C@@H]4CC(=O)NC(=O)N4)cc3)NC(=O)[C@H](CO)NC(=O)[C@@H](Cc3cccnc3)NC(=O)[C@@H](Cc3ccc(Cl)cc3)NC(=O)[C@@H](Cc3ccc4ccccc4c3)NC(C)=O)C(=O)N3CCC[C@H]3C(=O)N[C@H](C)C(N)=O)C(C)C)(C(C)C)C(C)C)cc1)[C@]1(C)O[C@H]1[C@H](C)[C@@H]1C[C@@](O)(NC(=O)O1)[C@H](OC)/C=C/C=C(\C)C2` [Compound 19] came in with an IC50 of 1 to 10 nM. `CCNC(=NCCCC[C@H](NC(=O)[C@H](CC(C)C)NC(=O)[C@@H](CCCCNC(=O)CCSSCCC(=O)N(C)[C@@H](C)C(=O)O[C@H]1CC(=O)N(C)c2cc(cc(OC)c2Cl)C/C(C)=C/C=C/[C@@H](OC)[C@@]2(O)C[C@H](OC(=O)N2)[C@@H](C)[C@@H]2O[C@@]12C)NC(=O)[C@H](Cc1ccc(O)cc1)NC(=O)[C@H](CO)NC(=O)[C@@H](Cc1cccnc1)NC(=O)[C@@H](Cc1ccc(Cl)cc1)NC(=O)[C@@H](Cc1ccc2ccccc2c1)NC(C)=O)C(=O)N1CCC[C@H]1C(=O)N[C@H](C)C(N)=O)NCC` [Compound 23] (Ac-[d2Nal][dPhe(4-Cl)][d3Pal]SY[dK](Propanoyl(3-SS-DM1))L[hArg(Et2)]P[dA]-NH2) displayed an IC50 of 0.1 to 1 nM. `COc1cc2cc(c1Cl)N(C)C(=O)C[C@H](OC(=O)[C@H](C)N(C)C(=O)CCSSCCC(=O)NCCCC[C@@H](NC(=O)[C@H](Cc1ccc(O)cc1)NC(=O)[C@H](CO)NC(=O)[C@@H](Cc1cccnc1)NC(=O)[C@@H](Cc1ccc(Cl)cc1)NC(=O)[C@@H](Cc1ccc3ccccc3c1)NC(C)=O)C(=O)N[C@@H](CC(C)C)C(=O)N[C@H](CCCNC(=N)N)C(=O)N1CCC[C@H]1C(=O)N[C@H](C)C(N)=O)[C@]1(C)O[C@H]1[C@H](C)[C@@H]1C[C@@](O)(NC(=O)O1)[C@H](OC)/C=C/C=C(\C)C2` [Compound 24] (Ac-[d2Nal][dPhe(4-Cl)][d3Pal]SY[dK](Propanoyl(3-SS-DM1))L[dR]P[dA]-NH2) had an IC50 of 1 to 10 nM.

Staying with this assay, now noted: purified membrane with LHRHR, 0.18 nM [125I]-[D-Trp6]-LHRH, 1 h at 25° C.; read-out: Binding Assay.
Take `CC(=O)N[C@H](Cc1ccc2ccccc2c1)C(=O)N[C@H](Cc1ccc(Cl)cc1)C(=O)N[C@H](Cc1cccnc1)C(=O)N[C@@H](CO)C(=O)N[C@H](CCCCN)C(=O)N[C@H](CCCNC(N)=O)C(=O)N[C@@H](CC(C)C)C(=O)N[C@@H](CCCNC(=N)N)C(=O)N1CCC[C@H]1C(=O)N[C@H](C)C(N)=O` [Compound 1] (Ac-[d2Nal][dPhe(4-Cl)][d3Pal]S[dK][dCit]LRP[dA]-NH2): the IC50 was more than 100 nM. The same measure, in the same setting: as for `CC(=O)N[C@H](Cc1ccc2ccccc2c1)C(=O)N[C@H](Cc1ccc(Cl)cc1)C(=O)N[C@H](Cc1cccnc1)C(=O)N[C@@H](CO)C(=O)N[C@@H](Cc1ccc(O)cc1)C(=O)N[C@H](CCCCN)C(=O)N[C@@H](CC(C)C)C(=O)N[C@@H](CCCNC(=N)N)C(=O)N1CCC[C@H]1C(=O)N[C@H](C)C(N)=O` [Compound 2] (Ac-[d2Nal][dPhe(4-Cl)][d3Pal]SY[dK]LRP[dA]-NH2), the figure is 0.1 to 1 nM; as for `CC(=O)N[C@H](Cc1ccc2ccccc2c1)C(=O)N[C@H](Cc1ccc(Cl)cc1)C(=O)N[C@H](Cc1cccnc1)C(=O)N[C@@H](CO)C(=O)N[C@@H](Cc1ccc(O)cc1)C(=O)N[C@H](CCCNC(N)=O)C(=O)N[C@H](CCCCN)C(=O)N[C@@H](CCCNC(=N)N)C(=O)N1CCC[C@H]1C(=O)N[C@H](C)C(N)=O` [Compound 3] (Ac-[d2Nal][dPhe(4-Cl)][d3Pal]SY[dCit][dK]RP[dA]-NH2), 10 to 100 nM; as for `CCNC(=NCCCC[C@@H](NC(=O)[C@H](CCCCN)NC(=O)[C@H](CO)NC(=O)[C@@H](Cc1cccnc1)NC(=O)[C@@H](Cc1ccc(Cl)cc1)NC(=O)[C@@H](Cc1ccc2ccccc2c1)NC(C)=O)C(=O)N[C@@H](CC(C)C)C(=O)N[C@H](CCCCN=C(NCC)NCC)C(=O)N1CCC[C@H]1C(=O)N[C@H](C)C(N)=O)NCC` [Compound 4] (Ac-[d2Nal][dPhe(4-Cl)][d3Pal]SK[d(hArg(Et2))]L[d(hArg(Et2))]P[dA]-NH2), more than 100 nM.

For the compound `CCNC(=NCCCC[C@@H](NC(=O)[C@H](Cc1ccc(O)cc1)NC(=O)[C@H](CO)NC(=O)[C@@H](Cc1cccnc1)NC(=O)[C@@H](Cc1ccc(Cl)cc1)NC(=O)[C@@H](Cc1ccc2ccccc2c1)NC(C)=O)C(=O)N[C@H](CCCCN)C(=O)N[C@H](CCCCN=C(NCC)NCC)C(=O)N1CCC[C@H]1C(=O)N[C@H](C)C(N)=O)NCC` [Compound 5] (Ac-[d2Nal][dPhe(4-Cl)][d3Pal]SY[d(hArg(Et2))][dK][d(hArg(Et2))]P[dA]-NH2), the IC50 was more than 100 nM. `CCNC(=NCCCC[C@@H](NC(=O)[C@@H](CCCCNC(=O)CCC(=O)O[C@@H](C(=O)O[C@H]1C[C@@]2(O)[C@@H](OC(=O)c3ccccc3)[C@@H]3[C@]4(OC(C)=O)CO[C@@H]4C[C@H](O)[C@@]3(C)C(=O)[C@H](OC(C)=O)C(=C1C)C2(C)C)[C@@H](NC(=O)c1ccccc1)c1ccccc1)NC(=O)[C@H](CO)NC(=O)[C@@H](Cc1cccnc1)NC(=O)[C@@H](Cc1ccc(Cl)cc1)NC(=O)[C@@H](Cc1ccc2ccccc2c1)NC(C)=O)C(=O)N[C@@H](CC(C)C)C(=O)N[C@H](CCCCN=C(NCC)NCC)C(=O)N1CCC[C@H]1C(=O)N[C@H](C)C(N)=O)NCC` [Compound 7] (Ac-[d2Nal][dPhe(4-Cl)][d3Pal]S[dK](Paclitaxel(2'-O-succinyl))[d(hArg(Et2))]L[d(hArg(Et2))]P[dA]-NH2): the IC50 is more than 100 nM. For the compound `CCNC(=NCCCC[C@H](NC(=O)[C@H](CC(C)C)NC(=O)[C@@H](CCCCN)NC(=O)[C@H](Cc1ccc(O)cc1)NC(=O)[C@H](CO)NC(=O)[C@@H](Cc1cccnc1)NC(=O)[C@@H](Cc1ccc(Cl)cc1)NC(=O)[C@@H](Cc1ccc2ccccc2c1)NC(C)=O)C(=O)N1CCC[C@H]1C(=O)N[C@H](C)C(N)=O)NCC` [Compound 12] (Ac-[d2Nal][dPhe(4-Cl)][d3Pal]SY[dK]L[hArg(Et2)]P[dA]-NH2), the IC50 was 0.1 to 1 nM. Consider `CC(=O)N[C@H](Cc1ccc2ccccc2c1)C(=O)N[C@H](Cc1ccc(Cl)cc1)C(=O)N[C@H](Cc1cccnc1)C(=O)N[C@@H](CO)C(=O)N[C@@H](Cc1ccc(O)cc1)C(=O)N[C@H](CCCCN)C(=O)N[C@@H](CC(C)C)C(=O)N[C@H](CCCNC(=N)N)C(=O)N1CCC[C@H]1C(=O)N[C@H](C)C(N)=O` [Compound 13] (Ac-[d2Nal][dPhe(4-Cl)][d3Pal]SY[dK]L[dR]P[dA]-NH2), for which the IC50 lay within 10 to 100 nM. Consider `COc1cccc2c1C(=O)c1c(O)c3c(c(O)c1C2=O)C[C@@](O)(C(=O)CO)C[C@@H]3O[C@H]1C[C@H](NC(=O)OCc2ccc(NC(=O)[C@H](C)NC(=O)[C@@H](NC(=O)c3ccc(COCCOCCOCCn4nnc5c4CC[C@H]4[C@@H](CC5)[C@@H]4COC(=O)NCCCC[C@@H](NC(=O)[C@H](Cc4ccc(O)cc4)NC(=O)[C@H](CO)NC(=O)[C@@H](Cc4cccnc4)NC(=O)[C@@H](Cc4ccc(Cl)cc4)NC(=O)[C@@H](Cc4ccc5ccccc5c4)NC(C)=O)C(=O)N[C@@H](CC(C)C)C(=O)N[C@@H](CCCNC(=N)N)C(=O)N4CCC[C@H]4C(=O)N[C@H](C)C(N)=O)cc3)C(C)C)cc2)[C@H](O)[C@H](C)O1` [Compound 17], for which the IC50 fell in the range of 0.1 to 1 nM. For the compound `COc1cc2cc(c1Cl)N(C)C(=O)C[C@H](OC(=O)[C@H](C)N(C)C(=O)CCSC(=O)OC[C@H]1[C@@H]3CCc4c(nnn4CCCC[C@@H](NC(=O)[C@H](Cc4ccc(O)cc4)NC(=O)[C@H](CO)NC(=O)[C@@H](Cc4cccnc4)NC(=O)[C@@H](Cc4ccc(Cl)cc4)NC(=O)[C@@H](Cc4ccc5ccccc5c4)NC(C)=O)C(=O)N[C@@H](CC(C)C)C(=O)N[C@@H](CCCNC(=N)N)C(=O)N4CCC[C@H]4C(=O)N[C@H](C)C(N)=O)CC[C@@H]31)[C@]1(C)O[C@H]1C(C)[C@@H]1C[C@@](O)(NC(=O)O1)[C@H](OC)/C=C/C=C(\C)C2` (stereo partly shown) [Compound 20], the IC50 is 0.1 to 1 nM.
